# Experiments:
# Format in all cases: functional
# Paracentrotus lividus [1] = assay: Antimitotic activity in sea urchin fertilized egg assessed as cleavage alteration treated at 8 to 20 mins post-fertilization measured at 2.5 to 5.5 hrs post-fertilization
# [2] = Growth inhibition of human NCI-ADR-RES cells after 48 hrs by sulforhodamine B assay
# IGROV-1 = assay: Growth inhibition of human IGROV1 cells after 48 hrs by sulforhodamine B assay; details: IGROV-1, 48 h
# SNB-19 = assay: Growth inhibition of human SNB19 cells after 48 hrs by sulforhodamine B assay; details: SNB-19, 48 h
# HOP-62 = assay: Growth inhibition of human HOP62 cells after 48 hrs by sulforhodamine B assay; details: HOP-62, 48 h
# OVCAR-8 = assay: Growth inhibition of human OVCAR8 cells after 48 hrs by sulforhodamine B assay; details: OVCAR-8, 48 h
# KM12 = assay: Growth inhibition of human KM12 cells after 48 hrs by sulforhodamine B assay; details: KM12, 48 h
# A498 = assay: Growth inhibition of human A498 cells after 48 hrs by sulforhodamine B assay; details: A498, 48 h
# SW-620 = assay: Growth inhibition of human SW620 cells after 48 hrs by sulforhodamine B assay; details: SW-620, 48 h
# TK-10 = assay: Growth inhibition of human TK10 cells after 48 hrs by sulforhodamine B assay; details: TK-10, 48 h
# RPMI-8226 = assay: Growth inhibition of human RPMI8226 cells after 48 hrs by sulforhodamine B assay; details: RPMI-8226, 48 h
# LOX IMVI = assay: Growth inhibition of human LOXIMVI cells after 48 hrs by sulforhodamine B assay
# SF-268 = assay: Growth inhibition of human SF268 cells after 48 hrs by sulforhodamine B assay; details: SF-268, 48 h
# [3] = Growth inhibition of human RXF393 cells after 48 hrs by sulforhodamine B assay; details: RXF 393, 48 h
# [4] = Growth inhibition of human EKVX cells after 48 hrs by sulforhodamine B assay
# 786-0 = assay: Growth inhibition of human 786-0 cells after 48 hrs by sulforhodamine B assay; details: 786-0, 48 h
# MOLT-4 = assay: Growth inhibition of human MOLT4 cells after 48 hrs by sulforhodamine B assay; details: MOLT-4, 48 h
# ACHN = assay: Growth inhibition of human ACHN cells after 48 hrs by sulforhodamine B assay
# NCI-H460 = assay: Growth inhibition of human NCI-H460 cells after 48 hrs by sulforhodamine B assay; details: NCI-H460, 48 h
# [5] = Growth inhibition of human SF539 cells after 48 hrs by sulforhodamine B assay; details: SF-539, 48 h
# SK-OV-3 = assay: Growth inhibition of human SKOV3 cells after 48 hrs by sulforhodamine B assay; details: SK-OV-3, 48 h
# SK-MEL-28 = assay: Growth inhibition of human SK-MEL-28 cells after 48 hrs by sulforhodamine B assay; details: SK-MEL-28, 48 h
# SK-MEL-2 = assay: Growth inhibition of human SK-MEL-2 cells after 48 hrs by sulforhodamine B assay; details: SK-MEL-2, 48 h
# HCT-116 = assay: Growth inhibition of human HCT116 cells after 48 hrs by sulforhodamine B assay; details: HCT-116, 48 h
# COLO 205 = assay: Growth inhibition of human COLO205 cells after 48 hrs by sulforhodamine B assay; details: COLO 205, 48 h
# CCRF-CEM = assay: Growth inhibition of human CCRF-CEM cells after 48 hrs by sulforhodamine B assay
# OVCAR-3 = assay: Growth inhibition of human OVCAR3 cells after 48 hrs by sulforhodamine B assay; details: OVCAR-3, 48 h
# U-251 = assay: Growth inhibition of human U251 cells after 48 hrs by sulforhodamine B assay; details: U-251, 48 h
# Paracentrotus lividus [6] = assay: Microtubule destabilizing activity in sea urchin free-swimming blastula assessed as embryo spinning treated at 9 to 10 hrs post-fertilization measured after 0.15 to 15 hrs
# SR = assay: Growth inhibition of human SR cells after 48 hrs by sulforhodamine B assay
# NCI-H226 = assay: Growth inhibition of human NCI-H226 cells after 48 hrs by sulforhodamine B assay; details: NCI-H226, 48 h
# HCT-15 = assay: Growth inhibition of human HCT15 cells after 48 hrs by sulforhodamine B assay; details: HCT-15, 48 h
# [7] = Growth inhibition of human HOP92 cells after 48 hrs by sulforhodamine B assay; details: HOP-92, 48 h
# HT-29 = assay: Growth inhibition of human HT-29 cells after 48 hrs by sulforhodamine B assay; details: HT-29, 48 h
# SF-295 = assay: Growth inhibition of human SF295 cells after 48 hrs by sulforhodamine B assay; details: SF-295, 48 h
# Paracentrotus lividus [8] = assay: Antimitotic activity in sea urchin fertilized egg assessed as cleavage arrest treated at 8 to 20 mins post-fertilization measured at 2.5 to 5.5 hrs post-fertilization
# HL-60(TB) = assay: Growth inhibition of human HL-60(TB) cells after 48 hrs by sulforhodamine B assay; details: HL-60, 48 h
# NCI-H322M = assay: Growth inhibition of human NCI-H322M cells after 48 hrs by sulforhodamine B assay
# UACC-62 = assay: Growth inhibition of human UACC62 cells after 48 hrs by sulforhodamine B assay; details: UACC-62, 48 h
# [9] = Growth inhibition of human HCC2998 cells after 48 hrs by sulforhodamine B assay; details: HCC 2998, 48 h
# SN12C = assay: Growth inhibition of human SN12C cells after 48 hrs by sulforhodamine B assay
# [10] = Growth inhibition of human OVCAR5 cells after 48 hrs by sulforhodamine B assay; details: OVCAR-5, 48 h
# NCI-H522 = assay: Growth inhibition of human NCI-H522 cells after 48 hrs by sulforhodamine B assay; details: NCI-H522, 48 h
# NCI-H23 = assay: Growth inhibition of human NCI-H23 cells after 48 hrs by sulforhodamine B assay; details: NCI-H23, 48 h
# [11] = Growth inhibition of human Hs 578T cells after 48 hrs by sulforhodamine B assay
# BT-549 = assay: Growth inhibition of human BT549 cells after 48 hrs by sulforhodamine B assay; details: BT-549, 48 h
# PC-3 = assay: Growth inhibition of human PC3 cells after 48 hrs by sulforhodamine B assay; details: PC-3, 48 h
# [12] = Growth inhibition of human OVCAR4 cells after 48 hrs by sulforhodamine B assay; details: OVCAR-4, 48 h
# DU-145 = assay: Growth inhibition of human DU145 cells after 48 hrs by sulforhodamine B assay; details: DU-145, 48 h
# [13] = Growth inhibition of human UO31 cells after 48 hrs by sulforhodamine B assay; details: UO-31, 48 h
# MDA-MB-435 = assay: Growth inhibition of human MDA-MB-435 cells after 48 hrs by sulforhodamine B assay; details: MDA-MB-435, 48 h
# M14 = assay: Growth inhibition of human M14 cells after 48 hrs by sulforhodamine B assay; details: M14, 48 h
# SNB-75 = assay: Growth inhibition of human SNB75 cells after 48 hrs by sulforhodamine B assay; details: SNB-75, 48 h
# SK-MEL-5 = assay: Growth inhibition of human SK-MEL-5 cells after 48 hrs by sulforhodamine B assay; details: SK-MEL-5, 48 h
# MDA-MB-468 = assay: Growth inhibition of human MDA-MB-468 cells after 48 hrs by sulforhodamine B assay; details: MDA-MB-468, 48 h
# MCF7 = assay: Growth inhibition of human MCF7 cells after 48 hrs by sulforhodamine B assay; details: MCF7, 48 h
# A549 = assay: Growth inhibition of human A549/ATCC cells after 48 hrs by sulforhodamine B assay; details: A549, 48 h
# T47D = assay: Growth inhibition of human T47D cells after 48 hrs by sulforhodamine B assay
# [14] = Growth inhibition of human UACC257 cells after 48 hrs by sulforhodamine B assay; details: UACC-257, 48 h
# MDA-MB-231 = assay: Growth inhibition of human MDA-MB-231 cells after 48 hrs by sulforhodamine B assay; details: MDA-MB-231, 48 h
smiles,measurement,setting,value
COc1ccc(/C=C\c2cc(OC)c(OC)c(OC)c2)cc1O [COMBRETASTATIN A4],EC,Paracentrotus lividus [1],0.002 µM
same,GI50,[2],1 nM
same,GI50,IGROV-1,14.6 nM
same,GI50,SNB-19,3.85 nM
same,GI50,HOP-62,2.65 nM
same,GI50,OVCAR-8,2.99 nM
same,GI50,KM12,4.99 nM
same,GI50,A498,6.11 nM
same,GI50,SW-620,3.04 nM
same,GI50,TK-10,100 nM
same,GI50,RPMI-8226,3.42 nM
same,GI50,LOX IMVI,3.25 nM
same,GI50,SF-268,5.7 nM
same,GI50,[3],2.37 nM
same,GI50,[4],85.7 nM
same,GI50,786-0,100 nM
same,GI50,MOLT-4,3.27 nM
same,GI50,ACHN,6.14 nM
same,GI50,NCI-H460,3.11 nM
same,GI50,[5],2.54 nM
same,GI50,SK-OV-3,58.9 nM
same,GI50,SK-MEL-28,8.07 nM
same,GI50,SK-MEL-2,4.37 nM
same,GI50,HCT-116,3.28 nM
same,GI50,COLO 205,100 nM
same,GI50,CCRF-CEM,2.62 nM
same,GI50,OVCAR-3,2.1 nM
same,GI50,U-251,4.03 nM
same,EC,Paracentrotus lividus [6],0.05 µM
same,GI50,SR,2.99 nM
same,GI50,NCI-H226,3.81 nM
same,GI50,HCT-15,3.66 nM
same,GI50,[7],2.73 nM
same,GI50,HT-29,100 nM
same,GI50,SF-295,3.87 nM
same,EC,Paracentrotus lividus [8],0.01 µM
same,GI50,HL-60(TB),2.16 nM
same,GI50,NCI-H322M,7.45 nM
same,GI50,UACC-62,5.51 nM
same,GI50,[9],63.4 nM
same,GI50,SN12C,5.98 nM
same,GI50,[10],100 nM
same,GI50,NCI-H522,2.18 nM
COc1ccc(-c2c(-c3cc4c(c(OC)c3OC)OCO4)noc2N)cc1,EC,Paracentrotus lividus [1],0.02 µM
same,GI50,[2],126 nM
same,GI50,IGROV-1,683 nM
same,GI50,SNB-19,672 nM
same,GI50,NCI-H23,391 nM
same,GI50,HOP-62,551 nM
same,GI50,OVCAR-8,448 nM
same,GI50,KM12,112 nM
same,GI50,[11],438 nM
same,GI50,A498,374 nM
same,GI50,SW-620,210 nM
same,GI50,TK-10,202 nM
same,GI50,LOX IMVI,523 nM
same,GI50,SF-268,641 nM
same,GI50,[3],335 nM
same,GI50,BT-549,848 nM
same,GI50,[4],23600 nM
same,GI50,PC-3,300 nM
same,GI50,786-0,578 nM
same,GI50,MOLT-4,674 nM
same,GI50,ACHN,831 nM
same,GI50,[12],927 nM
same,GI50,NCI-H460,364 nM
same,GI50,[5],285 nM
same,GI50,SK-OV-3,338 nM
same,GI50,DU-145,487 nM
same,GI50,SK-MEL-28,497 nM
same,GI50,SK-MEL-2,362 nM
same,GI50,HCT-116,314 nM
same,GI50,COLO 205,272 nM
same,GI50,OVCAR-3,184 nM
same,GI50,U-251,359 nM
same,EC,Paracentrotus lividus [6],2 µM
same,GI50,[13],669 nM
same,GI50,MDA-MB-435,29.2 nM
same,GI50,SR,35.9 nM
same,GI50,NCI-H226,855 nM
same,GI50,M14,244 nM
same,GI50,SNB-75,138 nM
same,GI50,HCT-15,352 nM
same,GI50,[7],837 nM
same,GI50,HT-29,262 nM
same,GI50,SF-295,274 nM
same,GI50,SK-MEL-5,238 nM
same,GI50,MDA-MB-468,138 nM
same,GI50,MCF7,280 nM
same,EC,Paracentrotus lividus [8],0.2 µM
same,GI50,HL-60(TB),189 nM
same,GI50,NCI-H322M,625 nM
same,GI50,A549,523 nM
same,GI50,UACC-62,513 nM
same,GI50,[9],524 nM
same,GI50,SN12C,818 nM
same,GI50,T47D,568 nM
same,GI50,[10],2100 nM
same,GI50,[14],458 nM
same,GI50,MDA-MB-231,983 nM
same,GI50,NCI-H522,65.5 nM

# Source: ChEMBL document CHEMBL3112491, “3-(5-)-Amino-o-diarylisoxazoles: regioselective synthesis and antitubulin activity” (2014)
